Reference: patent US6750234B2, “Methods for increasing leptin levels using nicotinic acid compounds” (University of Kentucky Research Foundation, priority 2001, dated 2004)
Like-named read-outs stand apart in the source and are kept apart here.

Assays:
leptin [1] = conditions: transgenic mice; cited from earlier work
leptin [2] = conditions: male BALB/C mice, 4 ml/kg/mouse, vs vehicle
Protocol: The experiments described in example 2 were continued, in the experiment described in this example. Specifically, male BALB/C mice were shaved, from the scapulae to tail bases. The subject animals then received topical application of the lauryl nicotinate ester lotion, described in example 2, supra, or myristyl nicotinate ester lotion, in varying concentrations. Controls received vehicle only. The lotion was applied at a dose of 4 ml/kg/mouse.
Serum leptin levels were measured, as described, supra.

full thickness wounds = conditions: mice, about 6 mm full thickness wounds, topical 20% lotion, 100 μl twice every day for 14 days, vs lotion without ester
Protocol: Mice were inflicted with full thickness wounds of about 6 mm in diameter, under anesthesia (sodium phenobarbital). They then received topical application of a 20% nicotinate ester lotion, every day, for 14 days. The dosing was 100 μl for each application, with two applications every day. As a control, the lotion without the ester was used. Wound diameter was measured every day.

leptin [3] = conditions: female apoB/CETP mice
Protocol: Leptin levels in plasma were determined using a commercially available murine leptin radioimmunoassay. The RIA was carried out on fasting (16 h) blood samples obtained from the retroorbital plexus. The blood samples were collected and centrifuged at 2000×g for 15 minutes to secure plasma.

Human adipocytes = conditions: 0.1 mM niacin, 24 hours, vs cultures without niacin
Protocol: Human adipocytes were obtained in accordance with standard methods. In brief, preadipocytes were collected from subcutaneous adipose tissue, following collagenase treatment. The preadipocytes were plated, and allowed to differentiate for 3 weeks, to form adipocytes.
The adipocytes were then incubated, in 0.6 ml of DMEM/F-10 medium, to which 2% bovine serum albumin was added.
After 24 hours, the culture medium was analyzed for leptin, using a commercially available ELISA kit.

## Cc1cnc(C(=O)O)c[n+]1[O-] [Acipimox]
Leptin [1]
  plasma leptin levels: increase plasma leptin levels

## CCCCCCCCCCCCOC(=O)c1cccnc1 [lauryl nicotinate ester]
Leptin [2]; topical 10% lotion
  increase in serum leptin levels: 45%
Full thickness wounds
  reduction of wound thickness: 43%
Leptin [3]; topical, 200 mg of 10% (wt/wt) lotion daily for 13 weeks, compared with oral niacin
  amount of circulating leptin (plasma): surpassed it in terms of the amount of circulating leptin

## CCCCCCCCCCCCCCOC(=O)c1cccnc1 [myristyl nicotinate ester]
Leptin [2]; topical 2% formulation
  increase in serum leptin levels: 57%
Leptin [2]; topical 5% formulation
  increase in serum leptin levels: 77%

## O=C(O)c1cccnc1 [niacin, reference compound]
Human adipocytes
  increase in leptin production: 62%
Leptin [3]; oral, sodium salt 0.75% in drinking water, approx. 1400 mg/kg, fasting (16 h) blood
  amount of circulating leptin (plasma): did increase the amount of circulating leptin
